ChEMBL document CHEMBL4184110 (Bioorg Med Chem Lett, 2018)
≈ marks a conversion by molar mass, not a printed value.

Assays:
[1] = tested on: HEK-293T; experiment: Cytotoxicity against HEK293T cells assessed as decrease in cell viability at 100 uM after 18 hrs by Cell Titer-Glo based luminescence assay relative to control; conditions: human
[2] = molecular target: T1, Peroxisome proliferator-activated receptor delta (Homo sapiens, UniProt Q03181); experiment: Transactivation of CMV-fused PPARdelta-LBD-GAL4-DBD (unknown origin) expressed in HEK293T cells by luciferase reporter gene assay; assay type: cell-based
T1 sequence (Q03181 whole entry): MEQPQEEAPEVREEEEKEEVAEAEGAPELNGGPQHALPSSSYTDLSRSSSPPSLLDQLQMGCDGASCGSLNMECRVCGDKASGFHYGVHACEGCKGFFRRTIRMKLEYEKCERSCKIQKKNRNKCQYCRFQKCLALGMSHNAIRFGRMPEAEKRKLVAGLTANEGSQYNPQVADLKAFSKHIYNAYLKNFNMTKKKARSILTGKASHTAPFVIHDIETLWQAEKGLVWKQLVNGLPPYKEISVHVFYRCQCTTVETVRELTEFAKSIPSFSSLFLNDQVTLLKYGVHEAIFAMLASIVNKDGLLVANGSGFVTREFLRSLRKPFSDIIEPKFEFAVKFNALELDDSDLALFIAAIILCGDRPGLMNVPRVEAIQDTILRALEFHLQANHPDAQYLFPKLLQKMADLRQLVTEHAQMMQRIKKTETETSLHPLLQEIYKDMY

[3] = molecular target: T2, Vitamin D3 receptor (Homo sapiens, UniProt P11473); experiment: Agonist activity at VDR-LBD (unknown origin) assessed as recruitment of alexa fluor 647-labeled SRC2-3 after 30 mins by fluorescence polarization assay
T2 sequence (P11473 whole entry): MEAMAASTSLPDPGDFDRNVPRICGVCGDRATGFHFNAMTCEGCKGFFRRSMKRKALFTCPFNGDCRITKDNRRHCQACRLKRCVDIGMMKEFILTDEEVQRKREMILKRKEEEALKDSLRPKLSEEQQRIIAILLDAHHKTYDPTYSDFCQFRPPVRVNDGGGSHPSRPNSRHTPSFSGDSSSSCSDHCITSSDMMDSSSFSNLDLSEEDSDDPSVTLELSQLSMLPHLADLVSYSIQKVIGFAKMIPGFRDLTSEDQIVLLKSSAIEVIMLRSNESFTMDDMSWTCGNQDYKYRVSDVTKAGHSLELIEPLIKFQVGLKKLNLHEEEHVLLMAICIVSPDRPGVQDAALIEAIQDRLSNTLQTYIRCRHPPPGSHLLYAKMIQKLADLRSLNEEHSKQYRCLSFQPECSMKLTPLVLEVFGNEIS

[4] = molecular target: T2, Vitamin D3 receptor; experiment: Antagonist activity at VP16-fused VDR-LBD (unknown origin) expressed in HEK293T cells assessed as inhibition of ligand-induced GAL4-fused SRC1 coactivator recruitment by two-hybrid luciferase reporter gene assay; assay type: cell-based
[5] = molecular target: T2, Vitamin D3 receptor; experiment: Antagonist activity at CMV-fused VDR (unknown origin) expressed in HEK293T cells assessed as reduction in 24-hydroxylase promoter mediated transcriptional activity by luciferase reporter gene assay; assay type: cell-based
[6] = molecular target: T2, Vitamin D3 receptor; experiment: Antagonist activity at VDR-LBD (unknown origin) assessed as inhibition of LG190178-induced recruitment of alexa fluor 647-labeled SRC2-3 after 30 mins by fluorescence polarization assay
[7] = Aqueous solubility of the compound in DMSO at 500 uM by filter based assay; assay type: physicochemical
[8] = molecular target: T3, Peroxisome proliferator-activated receptor delta (Homo sapiens) (UniProt Q03181); experiment: Transactivation of CMV-fused PPARdelta-LBD-GAL4-DBD (unknown origin) expressed in HEK293T cells at 100 uM by luciferase reporter gene assay relative to GW0742; assay type: cell-based
T3 sequence (whole entry): T1 sequence (Q03181 whole entry)

Row | Structure (SMILES) | Activity [1] | EC50 [2] | EC50 [3] | IC50 [4] | IC50 ([5]; read-out: IC50) | IC50 [6] | solubility kinetic at 500 µM [7] | EC50 ([2]; read-out: EC50) | Activity [8] | IC50 [5]
1 | COC(=O)c1ccccc1OCc1oc(-c2cccc(OC)c2)nc1C | 94.6% | Not Active | Not Active | 15.4 µM | 6.75 µM | Not Active | 52.8 µM (≈ 18.7 µg/mL) |  |  | 
2 | COc1ccccc1-c1nc(C)c(COc2cccc(C(=O)O)c2)o1 | Non-Toxic |  | Not Active | > 100 µM |  | Not Active | 423 µM (≈ 144 µg/mL) | 0.88 µM | 22% | Not Active
3 | COc1cccc(-c2nc(C)c(COc3ccc(CCC(=O)O)cc3)o2)c1 | 41.2% |  | Not Active | 26.7 µM | 3.35 µM | Not Active | 234 µM (≈ 86.1 µg/mL) | 1.4 µM | 13.7% | 
4 | COC(=O)CCc1ccc(OCc2oc(-c3ccccc3OC)nc2C)cc1 | 79.9% | Not Active | Not Active | 13.6 µM | 10.1 µM | Not Active | 62.6 µM (≈ 23.9 µg/mL) |  |  | 
5 | COc1cccc(-c2nc(C)c(COc3ccc(C(=O)O)cc3)o2)c1 | 27.2% |  | Not Active | > 80 µM | > 100 µM | Not Active | 457 µM (≈ 155 µg/mL) | 2.6 µM | 2.1% | 
6 | COc1ccccc1-c1nc(C)c(COc2ccc(C(=O)O)cc2)o1 | Non-Toxic |  | Not Active | > 80 µM |  | Not Active | 460 µM (≈ 156 µg/mL) | 8.7 µM | 16% | Not Active
7 | COc1ccccc1-c1nc(C)c(COc2ccc(CC(=O)O)cc2)o1 | Non-Toxic |  | Not Active | > 80 µM |  | Not Active | 436 µM (≈ 154 µg/mL) | 11 µM | 48% | Not Active
8 | COc1cccc(-c2nc(C)c(COc3ccccc3C(=O)O)o2)c1 | 37.3% | Not Active | Not Active | > 33 µM | 40.4 µM | Not Active | 264 µM (≈ 89.6 µg/mL) |  |  | 
9 | COc1cccc(-c2nc(C)c(COc3ccc(CC(=O)O)cc3)o2)c1 | 34.5% |  | Not Active | 27.7 µM | 3.6 µM | Not Active | 410 µM (≈ 145 µg/mL) | 1.8 µM | 8.5% | 
10 | COC(=O)c1cccc(OCc2oc(-c3cccc(OC)c3)nc2C)c1 | 59.3% | Not Active | Not Active | 17.1 µM | 5.56 µM | Not Active | 24.1 µM (≈ 8.52 µg/mL) |  |  | 
11 | COC(=O)CCc1ccc(OCc2oc(-c3cccc(OC)c3)nc2C)cc1 | 67.6% |  | Not Active | 6.7 µM | 2.88 µM | Not Active | 38.2 µM (≈ 14.6 µg/mL) | 1.09 µM | 7.7% | 
12 | COc1cccc(-c2nc(C)c(COc3cccc(C(=O)O)c3)o2)c1 | 23.9% | Not Active | Not Active | 33.1 µM | 33.2 µM | Not Active | 498 µM (≈ 169 µg/mL) |  |  | 
13 | COC(=O)c1ccc(OCc2oc(-c3ccccc3OC)nc2C)cc1 | 81.5% | Not Active | Not Active | 17.9 µM | 4.85 µM | Not Active | 62.6 µM (≈ 22.1 µg/mL) |  |  | 
14 | COC(=O)c1ccccc1OCc1oc(-c2ccccc2OC)nc1C | 54.1% | Not Active | Not Active | 20.2 µM | 3.25 µM | Not Active | 185 µM (≈ 65.5 µg/mL) |  |  | 
15 | COc1ccccc1-c1nc(C)c(COc2ccc(CCC(=O)O)cc2)o1 | 2.1% |  | Not Active | > 100 µM | > 80 µM | Not Active | 400 µM (≈ 147 µg/mL) | 4.6 µM | 30% | 
16 | COc1ccccc1-c1nc(C)c(COc2ccccc2C(=O)O)o1 | 4.1% | Not Active | Not Active | > 80 µM |  | Not Active | 402 µM (≈ 136 µg/mL) |  |  | Not Active
